PubChem BioAssay AID256 (DTP/NCI, 2004)
Inconclusive results and toxic doses are left out. Rule for the calls: active = survival T/C of 150% or more; inactive = T/C below 125% in these data.

System: CD2F1 mice, L1210 leukemia ip, survival T/C
Experiment: NCI In Vivo Anticancer Drug Screen. Data for tumor model L1210 Leukemia (intraperitoneal) in CD2F1 (CDF1) mice
Conditions: higher = longer survival
Outline: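 Tumor-bearing mice (transplanted tumor) were split into treated and vehicle control groups, and the measured endpoint of each treated group was divided by that of its vehicle controls.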

[1] = endpoint: mean survival time, dose: 100.0 mg/kg/injection, schedule: Q04DX003 (ip), vehicle: saline with Tween-80
[2] = endpoint: mean survival time, dose: 200.0 mg/kg/injection, schedule: Q04DX003 (ip), vehicle: saline with Tween-80
[3] = endpoint: mean survival time, dose: 50.0 mg/kg/injection, schedule: Q01DX009 (ip), vehicle: saline with Tween-80
[4] = endpoint: mean survival time, dose: 100.0 mg/kg/injection, schedule: Q01DX009 (ip), vehicle: saline with Tween-80
[5] = endpoint: mean survival time, dose: 25.0 mg/kg/injection, schedule: Q04DX002 (ip), vehicle: saline with Tween-80
[6] = endpoint: mean survival time, dose: 50.0 mg/kg/injection, schedule: Q04DX002 (ip), vehicle: saline with Tween-80

Measured: T/C

COc1cc(-c2ccc(-[n+]3nc(Cc4ccc5c(c4)OCO5)nn3-c3ccccc3)c(OC)c2)ccc1-[n+]1nc(Cc2ccc3c(c2)OCO3)nn1-c1ccccc1
inactive: [1] 98 % of control | [2] 97 % of control

CCOC(=O)c1[nH]c(=S)n(Cc2ccccc2)c1C(=O)OCC
inactive: endpoint: mean survival time, dose: 50.0 mg/kg/injection, schedule: Q04DX003 (ip), vehicle: saline with Tween-80 103 % of control | [1] 108 % of control | [2] 97 % of control

CCCCN1C(=O)C(=O)N(c2cc(C)c(C)cc2C)C1=O
inactive: endpoint: mean survival time, dose: 12.5 mg/kg/injection, schedule: Q01DX009 (ip), vehicle: saline with Tween-80 100 % of control | endpoint: mean survival time, dose: 25.0 mg/kg/injection, schedule: Q01DX009 (ip), vehicle: saline with Tween-80 96 % of control | [3] 92 % of control | [4] 90 % of control

CC(=O)Nc1ccncn1
inactive: [5] 97 % of control | [6] 100 % of control

CC(=O)Nc1ccc(/C=C/[N+](=O)[O-])cc1
inactive: endpoint: mean survival time, dose: 75.0 mg/kg/injection, schedule: Q01DX001 (ip), vehicle: other 105 % of control | endpoint: mean survival time, dose: 150.0 mg/kg/injection, schedule: Q01DX001 (ip), vehicle: other 108 % of control | endpoint: mean survival time, dose: 300.0 mg/kg/injection, schedule: Q01DX001 (ip), vehicle: other 114 % of control

OCC1=CCN(CCc2c[nH]c3ccccc23)CC1
inactive: [4] 96 % of control | endpoint: mean survival time, dose: 200.0 mg/kg/injection, schedule: Q01DX009 (ip), vehicle: saline with Tween-80 96 % of control

CC(C)c1cc(C(C)(C)C)c(O)c(C(C)(C)C)c1
inactive: endpoint: mean survival time, dose: 25.0 mg/kg/injection, schedule: Q01DX009 (ip), vehicle: Klucel (hydroxypropylcellulose) (HPC) 94 % of control | endpoint: mean survival time, dose: 50.0 mg/kg/injection, schedule: Q01DX009 (ip), vehicle: Klucel (hydroxypropylcellulose) (HPC) 102 % of control | endpoint: mean survival time, dose: 100.0 mg/kg/injection, schedule: Q01DX009 (ip), vehicle: Klucel (hydroxypropylcellulose) (HPC) 98 % of control

COC(=O)C(Cl)c1ccc2c(c1)OCO2 (centres undefined)
inactive: [3] 96 % of control | [4] 96 % of control | [1] 96 % of control | [2] 93 % of control

CCOc1cc2ccc3c4cc(OC)c(OC)cc4c[n+](C)c3c2cc1OCC
inactive: [5] 107 % of control | [6] 111 % of control | endpoint: mean survival time, dose: 100.0 mg/kg/injection, schedule: Q04DX002 (ip), vehicle: saline with Tween-80 103 % of control

O=c1nc(-c2ccco2)sc(=O)[nH]1
inactive: endpoint: median survival time, dose: 25.0 mg/kg/injection, schedule: Q01DX009 (ip), vehicle: Klucel (hydroxypropylcellulose) (HPC) 100 % of control | endpoint: median survival time, dose: 50.0 mg/kg/injection, schedule: Q01DX009 (ip), vehicle: Klucel (hydroxypropylcellulose) (HPC) 106 % of control | endpoint: median survival time, dose: 100.0 mg/kg/injection, schedule: Q01DX009 (ip), vehicle: Klucel (hydroxypropylcellulose) (HPC) 96 % of control | endpoint: median survival time, dose: 200.0 mg/kg/injection, schedule: Q01DX009 (ip), vehicle: Klucel (hydroxypropylcellulose) (HPC) 102 % of control

CC(C)=CC(=O)OC1C2C(C)=CC(=O)C(O)C2(C)C2C3(O)OCC24C(CC(=O)OC14)C(C)C3O (centres undefined)
active: endpoint: mean survival time, dose: 2.0 mg/kg/injection, schedule: Q01DX009 (ip), vehicle: saline with Tween-80 151 % of control | endpoint: median survival time, dose: 2.0 mg/kg/injection, schedule: Q01DX009 (ip), vehicle: distilled water + Tween-80 + alcohol 153 % of control
inactive: endpoint: mean survival time, dose: 0.25 mg/kg/injection, schedule: Q01DX009 (ip), vehicle: distilled water + Tween-80 110 % of control | endpoint: mean survival time, dose: 0.5 mg/kg/injection, schedule: Q01DX009 (ip), vehicle: distilled water + Tween-80 124 % of control | endpoint: mean survival time, dose: 1.0 mg/kg/injection, schedule: Q01DX009 (ip), vehicle: distilled water + Tween-80 112 % of control | endpoint: median survival time, dose: 0.25 mg/kg/injection, schedule: Q01DX009 (ip), vehicle: distilled water + Tween-80 + alcohol 122 % of control | endpoint: median survival time, dose: 0.5 mg/kg/injection, schedule: Q01DX009 (ip), vehicle: distilled water + Tween-80 + alcohol 124 % of control

O=C1C=C(NNc2ccccc2)CCC1
inactive: [3] 104 % of control | [4] 100 % of control
